This is an account of results in patent US12139542B2, “Inhibitors of aortic carboxypeptidase-like protein (ACLP)” (TRUSTEES OF BOSTON UNIVERSITY, priority 2014, dated 2024).

The subject of the data set is ACLP. As to the kind of experiment: siRNA knockdown of ACLP in differentiating primary lung fibroblasts (Western blot). The format is cell-based, mouse. Conditions: primary lung fibroblasts transfected day 1 post-isolation, 2 nM siRNA, vs NTC siRNA. The procedure: siRNA. Differentiating primary lung fibroblasts were transfected with 2 nM small interfering RNA (siRNA) targeting ACLP (Dharmacon) ([…]) (SEQ ID NO: 5) on either day 1 or day 2 post-isolation. Fully differentiated primary lung myofibroblasts were transfected at passage 2 or 3 with 2 nM siRNA targeting ACLP. Non-targeting control (NTC) siRNA ([…], […], […], […]) (SEQ ID NO: 6) was used as a control in all experiments. Transfections were performed using RNAiMAX (Invitrogen) according to manufacturer's instructions.
Knockdown of ACLP slows and partially reverts the fibroblast to myofibroblast transition. To determine if ACLP was required for fibroblast to myofibroblast differentiation, siRNA was used to knockdown ACLP expression during myofibroblast differentiation. Freshly isolated wildtype primary lung fibroblasts were transfected on day 1 post-isolation with siRNA targeting ACLP (FIG. 2B) (3).

As for “GGCUCAAGAUCUACGCAAU (listed as RNA, chemistry not given here) [ACLP siRNA, small interfering RNA targeting mouse ACLP (Dharmacon)]”, the “reduction in ACLP protein expression” value is given as 68% and the “reduction of Collagen I levels” value worked out at 5%. In addition, the “reduction in SMA protein expression” value (statistically significant) was determined as 63%.
